Assays:
COX II = target: T1, COX II (Homo sapiens, UniProt P35354); assay: radiometric assay, COX II inhibition (human recombinant, baculovirus expressed, partially purified); type: biochemical; parameters: A 1.8 Kb DNA fragment containing the coding region of human COX II was generated by PCR; made in house; host or cells: Sf9 insect cells, baculovirus; conditions: radiometric assay, human recombinant baculovirus expressed enzyme; read-out: COX II IC50 (Table 2)
T1 sequence (P35354 18-604): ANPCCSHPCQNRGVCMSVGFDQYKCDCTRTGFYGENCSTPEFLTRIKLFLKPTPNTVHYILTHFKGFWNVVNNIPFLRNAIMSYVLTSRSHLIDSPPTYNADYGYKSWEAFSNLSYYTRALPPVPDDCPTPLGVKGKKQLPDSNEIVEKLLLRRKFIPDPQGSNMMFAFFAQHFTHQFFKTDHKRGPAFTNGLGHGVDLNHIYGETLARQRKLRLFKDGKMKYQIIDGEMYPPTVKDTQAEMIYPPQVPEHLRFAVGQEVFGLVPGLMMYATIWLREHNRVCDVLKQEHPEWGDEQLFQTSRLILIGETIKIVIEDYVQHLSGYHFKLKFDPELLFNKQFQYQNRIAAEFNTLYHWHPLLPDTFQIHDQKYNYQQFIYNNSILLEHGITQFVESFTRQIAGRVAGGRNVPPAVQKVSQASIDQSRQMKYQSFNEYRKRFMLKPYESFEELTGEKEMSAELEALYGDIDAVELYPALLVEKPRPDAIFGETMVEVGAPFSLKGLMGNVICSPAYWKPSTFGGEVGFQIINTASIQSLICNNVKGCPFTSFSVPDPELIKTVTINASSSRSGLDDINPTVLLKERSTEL
Protocol: (§1) Human prostaglandin G/H synthase I and II ("COX I" and "COX II") were expressed in the baculovirus expression system and purified to high levels.
(§2) As described above, human recombinant COX I and COX II were cloned and expressed in a baculovirus system. Partially purified COX I and COX II enzymes were used for screening compounds for their ability to inhibit COX I and COX II activity, as described below.
(§3) Compound (16), in 2 μl DMSO, and control samples (carrier vehicles only) were mixed with COX I or COX II samples (e.g. fractions from the chromatography columns) in polypropylene tubes and preincubated with 2 mM phenol for 5 minutes and then with 1 μM hematin for an additional 5 minutes. The 150 μl reaction mixture consisted of 50 mM Tris --HCl, pH 7.9, 2 mM EDTA, 10% glycerol, 200 μM phenol, 1 μM hematin, 1-25 μl sample and 20 μM 1-[^14 C] arachidonate (80.000-100.000 cpm/tube). After 45 seconds at room temperature, the reaction was terminated by adding 200 μl of 2N HCl and 750 μl water. An aliquot (950 μl) of the reaction mixture was loaded onto a 1 ml C~ Sep-Pak (J. T. Baker, Phillipsburg, N.J.) which had been previously washed with 2-3 ml methanol and equilibrated with 5-6 ml distilled water. Oxygenated products were quantitatively eluted with 3 ml of acetonitrile, H2 O and acetic acid (50:50:0.1, v/v) and the radioactivity in the eluate determined in a scintillation counter.
(§4) Human recombinant 10 min incubation with Compound (16)
(§5) baculovirus 45 sec incubation with 20 μM AA
(§6) partially purified Separation of radioactive products

COX I = COX I (Homo sapiens, UniProt P23219); assay: radiometric assay, COX I inhibition (human recombinant, baculovirus expressed, partially purified); type: biochemical; parameters: A 2 Kb fragment containing the coding region of COX I; made in house; host or cells: Sf9 insect cells, baculovirus (cDNA from Oxford Biomedical Research); conditions: radiometric assay, human recombinant baculovirus expressed enzyme; read-out: COX I IC50 (Table 2)
Protocol: as §1, §2, §3, §4, §5, §6

COX I, sequence (P23219 24-599): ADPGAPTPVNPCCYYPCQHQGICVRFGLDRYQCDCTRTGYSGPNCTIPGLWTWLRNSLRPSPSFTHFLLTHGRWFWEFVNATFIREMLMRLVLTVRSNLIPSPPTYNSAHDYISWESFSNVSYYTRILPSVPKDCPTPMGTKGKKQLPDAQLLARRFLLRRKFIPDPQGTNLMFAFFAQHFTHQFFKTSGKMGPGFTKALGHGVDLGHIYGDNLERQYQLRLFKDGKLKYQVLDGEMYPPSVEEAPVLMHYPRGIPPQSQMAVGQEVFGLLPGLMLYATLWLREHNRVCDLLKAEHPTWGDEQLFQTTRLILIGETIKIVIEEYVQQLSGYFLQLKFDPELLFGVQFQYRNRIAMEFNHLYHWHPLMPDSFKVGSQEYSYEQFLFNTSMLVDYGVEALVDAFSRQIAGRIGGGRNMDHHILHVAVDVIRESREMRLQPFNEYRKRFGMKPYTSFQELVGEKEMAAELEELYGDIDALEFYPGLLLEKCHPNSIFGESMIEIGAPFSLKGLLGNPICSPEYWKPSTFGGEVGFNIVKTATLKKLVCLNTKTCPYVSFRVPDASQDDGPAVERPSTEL

IC50 (COX II) [µM]	IC50 (COX I) [µM]	Compound
0.8	76	Cc1cc(Cc2ccc(=O)n(CCO)n2)n(C)c1C(=O)c1ccc(Cl)cc1 [Compound 118, 6-[5-(4-chloro-benzoyl)-1,4,-dimethyl-1H-pyrrol-2-ylmethyl]-2-(2-hydroxy-ethyl)-2H-pyridazin-3-one]
7	140	Cn1c(Cc2ccc(=O)[nH]n2)ccc1C(=O)c1cccs1 [Compound 62, 6-[1-methyl-5-(thienyl-2-carbonyl)-1H-pyrrol-2-ylmethyl]-2H-pyridazin-3-one]
0.44	31.7	C=Cc1ccc(C(=O)c2c(C)cc(Cc3ccc(=O)[nH]n3)n2C)cc1 [Compound 33, 6-[1,4-dimethyl-5-(4-vinyl-benzoyl)-1H-pyrrol-2-ylmethyl]-2H-pyridazin-3-one]
0.23	6.3	Cc1cc(Cc2ccc(=O)n(Cc3ccccc3)n2)n(C)c1C(=O)c1ccc(Cl)cc1 [Compound 121, 2-benzyl-6-[5-(4-chloro-benzoyl)-1,4,-dimethyl-1H-pyrrol-2-ylmethyl]-2H-pyridazin-3-one]
1.3	140	Cc1ccc(C(=O)c2ccc(C(C)c3ccc(=O)[nH]n3)n2C)cc1 (stereo not drawn) [Compound 95, 6-{1-[1-methyl-5-(4-methyl-benzoyl)-1H-pyrrol-2-yl]-ethyl}-2H-pyridazin-3-one]
0.07	3.7	Cc1cc(Cc2ccc(=O)n(Cc3ccc(Cl)cc3)n2)n(C)c1C(=O)c1ccc(Cl)cc1 [Compound 133, 6-[5-(4-chloro-benzoyl)-1,4,-dimethyl-1H-pyrrol-2-ylmethyl]-2-(4-chlorobenzyl)-2H-pyridazin-3-one]
0.54	94	COCCn1nc(Cc2cc(C)c(C(=O)c3ccc(Cl)cc3)n2C)ccc1=O [Compound 124, 6-[5-(4-chloro-benzoyl)-1,4,-dimethyl-1H-pyrrol-2-ylmethyl]-2-(2-methoxy-ethyl)-2H-pyridazin-3-one]
1.5	26.7	Cc1cc(Cc2ccc(=O)[nH]n2)n(C)c1C(=O)c1ccccc1 [Compound 32, 6-[5-benzoyl-1,4-dimethyl-1H-pyrrol-2-ylmethyl]-2H-pyridazin-3-one]
1.63	24.4	CC[C@H](C)NC(=O)Cn1nc(Cc2cc(C)c(C(=O)c3ccc(Cl)cc3)n2C)ccc1=O [Compound 157, S--N-sec-butyl-2-{3-[5-(4-chloro-benzoyl)-1,4,-dimethyl-1H-pyrrol-2-ylmethyl]-6-oxo-6H-pyridazin-1-yl}-acetamide]
1.5	300	Cc1ccc(C(=O)c2ccc(Cc3ccc(=O)[nH]n3)n2C)cc1 [Compound 100, 6-[1-methyl-5-(4-methyl-benzoyl)-1H-pyrrol-2-ylmethyl]-2H-pyridazin-3-one]
4.16	67	Cc1cc(Cc2ccc(=O)[nH]n2)n(C)c1C(=O)c1ccc(F)cc1 [Compound 142, 6-[1,4-dimethyl-5-(4-fluoro-benzoyl)-1H-pyrrol-2-ylmethyl]-2H-pyridazin-3-one]
0.97	61.4	C#CCn1nc(Cc2cc(C)c(C(=O)c3ccc(Cl)cc3)n2C)ccc1=O [Compound 126, 6-[5-(4-chloro-benzoyl)-1,4-dimethyl-1H-pyrrol-2-ylmethyl]-2-prop-2-ynyl-2H-pyridazin-3-one]
3.06	829	Cc1cc(Cc2ccc(=O)n(CCNS(C)(=O)=O)n2)n(C)c1C(=O)c1ccc(Cl)cc1 [Compound 136, N-(2-{3-[5-(4-chloro-benzoyl)-1,4,-dimethyl-1H-pyrrol-2-ylmethyl]-6-oxo-6H-pyridazin-1-yl}-ethyl)-methanesulfonamide]
2.3	8.1	6-(5-benzoyl-3-chloro-4-methyl-1H-pyrrol-2-ylmethyl)-2H-pyridazin-3-one [Compound 89]
0.55	100	COc1ccc(C(=O)c2cc(Cl)c(Cc3ccc(=O)[nH]n3)n2C)cc1 [Compound 88, 6-[3-chloro-5-(4-methoxy-benzoyl)-1-methyl-1H-pyrrol-2-ylmethyl]-2H-pyridazin-3-one]
0.35	52	CC(=O)OCCn1nc(Cc2cc(C)c(C(=O)c3ccc(Cl)cc3)n2C)ccc1=O [Compound 135, acetic acid 2-{3-[5-(4-chloro-benzoyl)-1,4,-dimethyl-1H-pyrrol-2-ylmethyl]-6-oxo-6H-pyridazin-1-yl}ethyl ester]
< 0.03	3.5	Cc1cc(Cc2ccc(=O)n(CCF)n2)n(C)c1C(=O)c1ccc(Cl)cc1 [Compound 123, 6-[5-(4-chloro-benzoyl)-1,4-dimethyl-1H-pyrrol-2-ylmethyl]-2-(2-fluoroethyl)-2H-pyridazin-3-one]
0.44	> 300	Cn1c(Cc2ccc(=O)[nH]n2)cc(Cl)c1C(=O)c1ccc(Cl)cc1 [Compound 81, 6-[4-chloro-5-(4-chloro-benzoyl)-1-methyl-1H-pyrrol-2-ylmethyl]-2H-pyridazin-3-one]
0.67	57	C=CCn1nc(Cc2cc(C)c(C(=O)c3ccc(Cl)cc3)n2C)ccc1=O [Compound 127, 2-allyl-6-[5-(4-chloro-benzoyl)-1,4-dimethyl-1H-pyrrol-2-ylmethyl]-2H-pyridazin-3one]
3.1	260	Cc1ccc(C(=O)c2ccc(CC3=NNC(=O)CC3)n2C)cc1 [Compound 102, 6-[1-methyl-5-(4-methyl-benzoyl)-1H-pyrrol-2-ylmethyl]-4,5-dihydro-2H-pyridazin-3-one]
1.6	< 10	CNC(=O)Cn1nc(Cc2cc(C)c(C(=O)c3ccc(Cl)cc3)n2C)ccc1=O [Compound 125, 2-{3-[5-(4-chloro-benzoyl)-1,4,-dimethyl-1H-pyrrol-2-ylmethyl]-6-oxo-6H-pyridazin-1-yl}--N-methyl acetamide]
0.63	> 100	Cc1cc(C(C#N)c2ccc(=O)[nH]n2)n(C)c1C(=O)c1ccc(Cl)cc1 (stereo not drawn) [Compound 9, [5-(4-chloro-benzoyl)-1,4-dimethyl-1H-pyrrol-2-yl]-(6-oxo-1,6-dihydro-pyridazin-3-yl)acetonitrile]
1.8	277	Cc1c(Br)c(Cc2ccc(=O)[nH]n2)n(C)c1C(=O)c1ccc(Cl)cc1 [Compound 25, 6-[3-bromo-5-(4-chloro-benzoyl)-1,4-dimethyl-1H-pyrrol-2-ylmethyl]-2H-pyridazin-3-one]
0.61	64.7	CC(=O)OCn1nc(Cc2cc(C)c(C(=O)c3ccc(Cl)cc3)n2C)ccc1=O [Compound 161, acetic acid 2-{3-[5-(4-chloro-benzoyl)-1,4,-dimethyl-1H-pyrrol-2-ylmethyl]-6-oxo-6H-pyridazin-1-yl}-methyl ester]
0.063	0.074	Cc1cc(Cc2ccc(=O)n(CC#N)n2)n(C)c1C(=O)c1ccc(Cl)cc1 [Compound 122, 6-[5-(4-chloro-benzoyl)-1,4,-dimethyl-1H-pyrrol-2-ylmethyl]-2-(cyano-methyl)-2H-pyridazin-3-one]
1.5	15	Cc1cc(C(C)c2ccc(=O)[nH]n2)n(C)c1C(=O)c1ccc(Cl)cc1 (stereo not drawn) [Compound 18, 6-{1-[5-(4-chloro-benzoyl)-1,4-dimethyl-1H-pyrrol-2-yl]-ethyl}-2H-pyridazin-3-one]
0.125	4.9	Cc1cc(Cc2cc(C)c(=O)[nH]n2)n(C)c1C(=O)c1ccc(Cl)cc1 [Compound 141, 6-[5-(4-chloro-benzoyl)-1,4-dimethyl-1H-pyrrol-2-ylmethyl]-4-methyl-2H-pyridazin-3-one]

Source: US5622948A, “Pyrrole pyridazine and pyridazinone anti-inflammatory agents” (Syntex (U.S.A.) Inc., priority 1994, dated 1997)
